Experimental data reported in patent US20260185054A1, “METHOD FOR PRODUCING METABOLICALLY ACTIVATED LIVER ORGANOID, COMPOSITION, AND METHOD FOR EVALUATING TEST SUBSTANCE” (JSR CORPORATION, priority 2023, published 2026).

Key:
Format in all cases: cell-based, human
liver organoid [1] = test: Gluconeogenesis of liver organoid (glucose quantified in medium supernatant, Glucose-Glo Assay); details: for gluconeogenesis of the liver organoid: glucose corrected by ATP, donor 9
Procedure: Subsequently, the medium was replaced with a Gluconogenesis assay medium having the composition shown in Table 4 below (hereinafter sometimes referred to as a “GM medium”), and incubation was performed for 24 hours in an environment of 37° C., 1 atm, and a CO2 concentration of 5 v/v %. The supernatant of the medium after the incubation was collected, and glucose and urea included in the medium were quantified. The measurement results will be described later.
The glucose was measured according to a protocol of the manufacturer using a Glucose-Glo™ Assay (Promega, catalog number: J6022). […]
In addition, the liver organoid after the incubation were washed three times with Fasting Medium (hereinafter sometimes referred to as an “FM medium”) having the composition shown in Table 3, FM was added thereto at 500 μL/well, and incubation was performed for 18 hours in an environment of 37° C., 1 atm, and a CO2 concentration of 5 v/v %.
Subsequently, the medium was replaced with a Gluconogenesis assay medium having the composition shown in Table 4 (hereinafter sometimes referred to as a “GM medium”), and incubation was performed for 24 hours in an environment of 37° C., 1 atm, and a CO2 concentration of 5 v/v %. The supernatant of the medium after the incubation was collected, and glucose and urea included in the medium were quantified. The quantification of glucose and urea was performed in the same manner as in Experimental Example 1. The measurement results will be described later.
The medium of the liver organoid, which had been produced in the same manner as in Experimental Example 2 and expansion-cultured for 2 weeks, was replaced with a differentiation medium (hereinafter sometimes referred to as a “DM medium”) having the composition shown in Table 6 below at 500 μL/well, and incubated for 2 weeks in an environment of 37° C., 1 atm, and a CO2 concentration of 5 v/v %. The medium was replaced every 7 days.
Subsequently, gluconeogenesis, urea production, albumin production, and bile acid production of the liver organoid were evaluated in the same manner as in Experimental Example 2. The results of the amount of glucose produced and the amount of urea produced will be described later.

[2] = system: gluconeogenesis-related genes (FBP1, PCK1) in liver organoid; test: Quantitative real-time PCR of liver organoids, gluconeogenesis medium composition changed; details: 1 μM insulin in GM medium with 200 pg/mL glucagon and 400 ng/mL cortisol; FM 6 hours, GM 4 hours; donor 2
Procedure: A GM medium obtained by removing glucagon and cortisol from the gluconeogenesis medium (GM medium) having the composition shown in Table 4, and further adding the components shown in Table 15 was prepared. Liver organoids were produced in the same manner as in Experimental Example 3, except that the incubation was performed for 6 hours after the addition of the FM medium and then the incubation was performed for 4 hours after the addition of the GM medium. In addition, the donor of the primary human hepatocyte used for the production of the liver organoid was a donor 2.
(§1) Subsequently, the expression of various genes in each of the produced liver organoids was analyzed by quantitative real-time PCR (qPCR). Specifically, a total RNA was extracted from cells using Direct-zol RNA Kit micro (Zymo Research, catalog number: #R2063), and a reverse transcription reaction was carried out using a PrimeScript RT Master Mix (Takara Bio, catalog number: RR036A) to obtain a cDNA. Subsequently, quantitative real-time PCR was performed using LightCycler 480 System (Roche) and using TB Green Premix Ex Taq II (Takara Bio, catalog number: #RR820A). The cDNA of the primary human hepatocyte was diluted to create a calibration curve.

liver organoid [3] = test: Urea production of liver organoid (Quantichrom Urea Assay Kit); details: metformin 1 mM or 10 mM added to MM, FM and GM medium; organoid cultured in DM medium
Procedure: The urea was measured according to a protocol of the manufacturer using Quantichrom Urea Assay Kit (Bioassay Systems, catalog number: DIUR-100).

[4] = system: gluconeogenesis-related genes, urea production-related genes and CYP genes in liver organoid; test: Quantitative real-time PCR of liver organoids, A83-01 removed from differentiation medium; details: liver organoids cultured in DM medium from which A83-01 had been removed, versus DM medium
From the text: A liver organoid was produced in the same manner as in Experimental Example 3, except that the transforming growth factor β receptor antagonist (A83-01) was removed from the differentiation medium (DM medium), and the expression of the gluconeogenesis-related genes, the urea production-related genes, and the CYP genes was examined by quantitative real-time PCR.
as §1, with “A” for “Subsequently, the expression of various genes in each of the produced liver organoids was analyzed by quantitative real-time PCR (qPCR). Specifically, a”

[5] = factor included in differentiation medium at varied concentrations (Tables 9, 10)
[6] = factor included in gluconeogenesis medium (Tables 17, 18)

## C[C@]12CCC(=O)C=C1CC[C@@H]1[C@@H]2[C@@H](O)C[C@@]2(C)[C@H]1CC[C@]2(O)C(=O)CO [cortisol, reference compound]
Liver organoid [1]; [5]
  gluconeogenesis of the liver organoid: improved in a manner dependent on the concentrations of added factors
Liver organoid [1]; [6]
  gluconeogenesis of the liver organoid: improved

## insulin: insulin added at 1 μM to the gluconeogenesis medium
[2]
  expression of the gluconeogenesis-related genes: suppresses

## CN(C)C(=N)N=C(N)N [metformin, reference compound]
Liver organoid [3]
  urea production in the liver organoid: suppressed
Liver organoid [1]; metformin 1 mM or 10 mM added to MM, FM and GM medium, organoid cultured in DM medium
  gluconeogenesis in the liver organoid: suppressed

## glucagon: hormone that increases blood glucose level through glycogenolysis and gluconeogenesis in the liver (Sigma G2044)
Liver organoid [1]; [6]
  gluconeogenesis of the liver organoid: improved

## growth hormone: hormone secreted from the anterior pituitary; growth hormone receptor agonist (PeproTech 100-40)
Liver organoid [1]; [5]
  gluconeogenesis of the liver organoid: improved in a manner dependent on the concentrations of added factors
Liver organoid [1]; [6]
  gluconeogenesis of the liver organoid: improved

## Cc1cccc(-c2nn(C(=S)Nc3ccccc3)cc2-c2ccnc3ccccc23)n1 [A83-01]
[4]
  expression of the gluconeogenesis-related genes, the urea production-related genes, and the CYP genes: decreased

B1: prolactin: hormone from prolactin-secreting cells of the anterior pituitary; prolactin receptor agonist (PeproTech 100-07) (protein, UniProt P01236 29-227, looked up)
Prolactin: LPICPGGAARCQVTLRDLFDRAVVLSHYIHNLSSEMFSEFDKRYTHGRGFITKAINSCHTSSLATPEDKEQAQQMNQKDFLSLIVSILRSWNEPLYHLVTEVRGMQEAPEAILSKAVEIEEQTKRLLEGMELIVSQVHPETKENEIYPVWSGLPSLQMADEESRLSAYYNLLHCLRRDSHKIDNYLKLLKCRIIHNNNC
Liver organoid [1]; [5]
  gluconeogenesis of the liver organoid: improved in a manner dependent on the concentrations of added factors
Liver organoid [1]; [6]
  gluconeogenesis of the liver organoid: improved
